Data as given in paper PMC10669220, “In Vitro α-Glucosidase and α-Amylase Inhibition, Cytotoxicity and Free Radical Scavenging Profiling of the 6-Halogeno and Mixed 6,8-Dihalogenated 2-Aryl-4-methyl-1,2-dihydroquinazoline 3-Oxides” (Antioxidants, 2023).

How the values were obtained:
[1] = NO free radical scavenging assay (sodium nitroprusside/Griess); conditions: mean ± SD; sodium nitroprusside, Griess reagent, 550 nm
Procedure: The assay was conducted following the method described in our previous study. A mixture of 10 mM sodium nitroprusside (20 µL), phosphate buffer (5 µL) and the test compound (5 µL) were incubated at 25 °C in a 96-well plate for 2.5 h. After incubation, 20 µL of Griess reagent (1.00 g of sulfanilic acid + 0.10 g naphthylethylene diamine dihydrochloride) was added to the previous mixture and allowed to stand for 30 min. […] Each experiment was performed in triplicate, and the average was taken. The average obtained from the absorbance readings was used to calculate the IC50 values in GraphPad prism from nonlinear regression dose–response curves.

[2] = test system: NO generated from nitric oxide synthase (NOS); test: Inhibitory activity against NO generated from NOS (EnzyChrom kit); format: biochemical; conditions: mean ± SD, 1-50 µM
Procedure: A nitric oxide synthase (NOS) assay was performed following the procedure recommended by the manufacturer as outlined in the screening kit (Catalogue No. EINO-100; EnzyChrom). Various concentrations (1, 5, 10, 25 and 50 µM) of the compounds 3a, 3c, 3f, 3i, 3l, 3n and 3p and the reference standard, ascorbic acid, were prepared. The enzyme solution (12.5 U/mL NOS, 10 µL), assay buffer (25 µL) and test samples (5 µL) were incubated at room temperature for 15 min. After pre-incubation, 10 µL of reaction mix was added and incubated at 37 °C for 60 min. A 200 µL quantity of NO detection reagent was added, the detection reaction was run at 37 °C for 60 min, and absorbance was determined at a wavelength of 540 nm using an Elisa plate reader (Varioskan Flash, ThermoFisher Scientific, Vantaa, Finland). The average of three readings was used to calculate the NOS percentage inhibition using the following formula: % Inhibition=1−ΔOD Test Compd/ΔOD No Inhibitor ×100%
The IC50 values and standard deviation values were determined from nonlinear regression dose–response curve and compared with the results in GraphPad prism.

[3] = DPPH radical scavenging assay; conditions: mean ± SD; 45 min in the dark; 512 nm
Procedure: The DPPH radical scavenging assay was conducted following the procedure described in our previous study. The test compounds and ascorbic acid at various concentrations (ranging from 0 µM to 50 µM) in DMSO were mixed with a solution of DPPH (0.20 mM) in methanol and incubated in the dark for 45 min. Five absorbance readings were recorded at 512 nm using an Elisa plate reader (Varioskan Flash, ThermoFisher Scientific, Vantaa, Finland). The experiment was carried out in triplicate, and averaged values from the absorbance readings were used to determine the IC50 and standard deviation values in GraphPad prism from nonlinear regression dose–response curves.

[4] = target: T1, α-Glucosidase type 1 from baker's yeast (Saccharomyces cerevisiae, UniProt P53341); test: biochemical; conditions: IC50 α-Glucosidase, mean ± SD, triplicate; tested at 1, 5, 10, 25, 50 µM
T1 construct: purchased Sigma Aldrich (Pty) Ltd. G5003
Procedure: The assay was conducted in triplicate following a method described in our previous study. […] After pre-incubation, 17 µL of 2 mM PNP-G was added. The absorbances were recorded in a 96-well microplate at 400 nm using an Elisa plate reader (Varioskan Flash, ThermoFischer Scientific, Vantaa, Finland). The average values obtained from the readings were used to determine the IC50 and standard deviation values using a GraphPad Prism software (Version 8, GraphPad Software Inc., San Diego, CA, USA). The average values obtained from the absorbance readings were used to determine the IC50 and standard deviation values in GraphPad prism from nonlinear regression dose–response curves.

[5] = test system: lung cancer (A549) cell line; test: MTT cytotoxicity assay, A549; conditions: for Cell viability percentage, A549: Table S3; for IC50: Homo sapiens, A549, read-out: IC50 A549
Procedure: (§1) Cells were cultured in sterile Dulbecco’s Minimal Essential Medium (DMEM, Gibco) supplemented with 10% fetal bovine serum (FBS) and 1% penicillin-streptomycin solution. […] Cell counting was carried out using a handheld automated cell counter (Scapter 3.0™, Merck, Burlington, MA, USA) and seeded (1 × 10^4 cells/well) into a 96-well plate. After 24 h, the cells were treated with different concentrations (1, 5, 10, 25 and 50 µM) of the test compounds and reference standards prepared in DMEM. The MTT solution (20 μL) prepared in PBS (5 mg/mL) was added to all the wells, and the plates were incubated for 4 h, followed by 1 h incubation with 100 µL of dimethyl sulfoxide (DMSO) to dissolve the formazan crystals. Untreated cells and 5% DMSO were included in the experiment as negative controls. All experiments were performed in triplicate. The plates were read at 570 nm at a reference wavelength of 630 nm using an ELISA plate reader (Varioskan Flash, ThermoFisher Scientific, Vantaa, Finland). The percentage of cell viability was calculated using the following formula, Cell viability %=At/Ab×100 where At represents the absorbance value of test compound and Ab the absorbance value of the blank. […] The data were expressed as means ± SD.

[6] = test system: breast cancer (MCF-7) cell line; test: MTT cytotoxicity assay, MCF-7; conditions: for Cell viability percentage, MCF-7: Table S2; for IC50: Homo sapiens, MCF7, read-out: IC50 MCF-7
Procedure: as §1

human α-amylase = target: T2, human α-amylase (Homo sapiens, UniProt P04746); test: α-amylase inhibitor screening kit assay; format: biochemical; conditions: mean ± SD, triplicate; tested at 1, 5, 10, 25, 50 µM
T2 construct: purchased Abcam ab283391
T2 sequence (P04746 16-511): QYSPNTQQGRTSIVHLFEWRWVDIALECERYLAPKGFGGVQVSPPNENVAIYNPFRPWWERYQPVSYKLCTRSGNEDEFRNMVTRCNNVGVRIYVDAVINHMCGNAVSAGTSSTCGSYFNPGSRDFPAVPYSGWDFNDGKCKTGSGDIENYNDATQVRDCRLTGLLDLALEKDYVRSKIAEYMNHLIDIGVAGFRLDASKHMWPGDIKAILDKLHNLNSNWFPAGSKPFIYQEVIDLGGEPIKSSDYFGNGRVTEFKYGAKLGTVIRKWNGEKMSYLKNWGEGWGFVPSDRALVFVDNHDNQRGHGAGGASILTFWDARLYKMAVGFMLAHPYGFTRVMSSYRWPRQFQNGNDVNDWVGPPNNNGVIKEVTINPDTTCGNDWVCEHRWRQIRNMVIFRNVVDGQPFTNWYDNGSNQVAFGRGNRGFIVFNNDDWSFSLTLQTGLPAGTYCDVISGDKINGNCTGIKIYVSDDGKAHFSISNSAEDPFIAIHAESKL
Procedure: The α-amylase assay was performed in triplicate, using a 96-well plate following the procedure recommended by the manufacturer as outlined in the α-amylase inhibitor Screening Kit (Catalogue No. ab283391; Abcam). […] The average values obtained from the absorbance readings were used to determine the IC50 and standard deviation values in GraphPad prism from nonlinear regression dose–response curves.

[7] = test system: human embryonic kidney (HEK293-T) cell line; test: MTT cytotoxicity assay, HEK293-T; conditions: Homo sapiens, HEK-293T, read-out: IC50 Hek293-T
Procedure: as §1

[8] = MTT cytotoxicity assay, HEK293-T; conditions: human, HEK293-T cells
Procedure: as §1

T1 sequence (P53341 whole entry): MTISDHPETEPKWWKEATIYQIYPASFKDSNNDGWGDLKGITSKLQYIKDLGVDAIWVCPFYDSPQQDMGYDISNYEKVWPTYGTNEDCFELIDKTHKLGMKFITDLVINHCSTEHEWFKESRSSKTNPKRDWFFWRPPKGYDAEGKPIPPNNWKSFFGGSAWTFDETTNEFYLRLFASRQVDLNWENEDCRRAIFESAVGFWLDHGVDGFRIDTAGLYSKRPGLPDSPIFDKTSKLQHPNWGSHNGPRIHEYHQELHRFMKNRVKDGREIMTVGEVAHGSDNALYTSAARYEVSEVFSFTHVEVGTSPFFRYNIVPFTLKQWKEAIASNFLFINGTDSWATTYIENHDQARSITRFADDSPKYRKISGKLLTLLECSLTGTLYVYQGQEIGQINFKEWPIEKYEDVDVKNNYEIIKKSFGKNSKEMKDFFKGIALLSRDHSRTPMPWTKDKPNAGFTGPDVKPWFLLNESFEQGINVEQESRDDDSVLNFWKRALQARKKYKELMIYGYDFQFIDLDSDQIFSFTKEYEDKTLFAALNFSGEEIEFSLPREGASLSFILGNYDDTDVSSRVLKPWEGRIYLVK

SMILES	IC50 [1] [µM]	IC50 [3] [µM]	melting point [°C]	IC50 [4] [µM]	Cell viability percentage, A549 ([5]; Conc. 1 (µM per method))	Cell viability percentage, A549 ([5]; Conc. 5 (µM per method))	IC50 [5] [µM]	Cell viability percentage, MCF-7 ([6]; Conc. 1 (µM per method))	Cell viability percentage, MCF-7 ([6]; Conc. 5 (µM per method))	Cell viability percentage, MCF-7 ([6]; Conc. 10 (µM per method))	Cell viability percentage, MCF-7 ([6]; Conc. 25 (µM per method))	Cell viability percentage, MCF-7 ([6]; Conc. 50 (µM per method))	IC50 [6] [µM]	IC50 (human α-amylase) [µM]	IC50 [7] [µM]	viability at 1 µM [8] [%]	viability at 5 µM [8] [%]	viability at 10 µM [8] [%]	viability at 25 µM [8] [%]	viability at 50 µM [8] [%]	further results
O=C1O[C@H]([C@@H](O)CO)C(O)=C1O [Ascorbic acid, ascorbic acid, reference compound]	5.39 ± 0.005	5.02 ± 0.009	–	–	–	–	–	–	–	–	–	–	–	–	–	–	–	–	–	–	IC50 [2]: 0.999 ± 0.006 µM
COc1ccc(C2Nc3ccc(I)cc3C(C)=[N+]2[O-])cc1 (stereo not drawn) [Compound 3h]	10.05 ± 0.003	0.21 ± 0.057	176 to 179	27.18 ± 0.02	87,7714%	86,9389%	18.71 ± 0.16	45,0932%	44,5775%	43,1304%	41,2009%	37,5083%	22.62 ± 0.12	55.72 ± 0.02	24.26 ± 0.04	33.3	32.6	30.8	29.7	28.1	Cell viability percentage, A549 ([5]; Conc. 10 (µM per method)): 64,8667%; Cell viability percentage, A549 ([5]; Conc. 25 (µM per method)): 56,0806%; Cell viability percentage, A549 ([5]; Conc. 50 (µM per method)): 38,362%
CC1=[N+]([O-])C(c2ccc(F)cc2)Nc2c(I)cc(Br)cc21 (stereo not drawn) [Compound 3j]	5.17 ± 0.007	61.01 ± 0.053	170 to 173	19.69 ± 0.01	79,064%	67,1729%	13.7 ± 0.12	60,354%	53,8289%	40,413%	30,7493%	22,7375%	15.06 ± 0.01	17.48 ± 0.03	32.83 ± 0.06	67.6	72.8	54.5	33.9	19.4	Cell viability percentage, A549 ([5]; Conc. 10 (µM per method)): 57,7455%; Cell viability percentage, A549 ([5]; Conc. 25 (µM per method)): 42,6257%; Cell viability percentage, A549 ([5]; Conc. 50 (µM per method)): 29,7109%
CC1=[N+]([O-])C(c2ccccc2)Nc2c(Br)cc(I)cc21 (stereo not drawn) [Compound 3m]	55.39 ± 0.002	8.88 ± 0.011	180 to 181	9.14 ± 0.03	78,1978%	68,6691%	16.34 ± 0.06	25,998%	24,1517%	20,9415%	20,6088%	17,6314%	15.34 ± 0.07	16.73 ± 0.01	27.97 ± 0.08	81.2	75	51.1	42	19.1	Cell viability percentage, A549 ([5]; Conc. 10 (µM per method)): 61,413%; Cell viability percentage, A549 ([5]; Conc. 25 (µM per method)): 42,2995%; Cell viability percentage, A549 ([5]; Conc. 50 (µM per method)): 30,0709%
CC1=[N+]([O-])C(c2ccc(Cl)cc2)Nc2c(Br)cc(I)cc21 (stereo not drawn) [Compound 3o]	23.25 ± 0.002	88.45 ± 0.009	140 to 142	7.07 ± 0.04	–	–	20 ± 0.05	46,2908%	41,6001%	39,6041%	38,7891%	23,0428%	16.5 ± 0.01	49.18 ± 0.01	58.98 ± 0.17	45.2	44.6	44.4	44.2	37.7	–
